“Also recorded” adds a separate entry of the source. Where two headings read alike, the source gives them in different places.
Assays:
[1] = tested on: P. falciparum; assay: In vitro toxicity against P. falciparum in culture (radiolabelled hypoxanthine incorporation / lactate dehydrogenase assay); type: cell-based, Plasmodium falciparum, FCQ27; conditions: for toxicity against P. falciparum, in words: statement in the transport and metabolism study
Procedure: P. falciparum, FCQ27, was maintained in culture using the techniques described by Trager & Jensen (W. Traqer and J. B. Jensen, Science, 193 673-675 (1976)). Cultures containing 2% hematocrit suspensions of parasitized human type O^+ erythrocytes in RPMI 1640 medium, supplemented with 25 mM HEPES-KOH, pH 7.2, 25 mM NaHCO3 and 10% human type O^+ serum (v/v) are maintained in modular incubator chambers at 37° C. in a gas mixture of 5% O2, 5% CO2 and 90% N2. The isolate of P. falciparum used in these experiments was FCQ27, routinely maintained in synchronized or asynchronous in vitro cultures at low hematocrit.
The potential toxicity of nucleoside analogues against P. falciparum in culture was tested in microtitre plates over the range of drug concentrations for 24 hours. The procedures for monitoring parasite viability is well established (A. M. Gero, H. V. Scott, W. J. O'Sullivan and R. I. Christopherson, Mol. Biochem. Parasitol. 34, 87-89 (1989)) and is based on radiolabelled hypoxanthine or isoleucine incorporation. The incorporation of [G-^3 H]hypoxanthine into the nucleic acids of P. falciparum was used to assess the viability of the parasite in vitro. Microculture plates were prepared with each well containing 225 μl of a 2% hematocrit culture of asynchronous parasited erythrocytes (1% parasitized cells). Each plate, containing varying concentrations of the drug to be studied (up to 200 μM final concentration for initial screen), was incubated for 24 h at 37° C. in a gas mixture of 5% O2, 5% CO2 and 90% N2, at which point [G-^3 H] hypoxanthine was added to each well and the incubation continued under identical conditions for a further 18-20 h. The control infected cells (i.e. without drug), routinely reached a parasitemia of 6-8% before harvesting. Expediency was aided by 96-well plate counter using lactate dehydrogenase for the drug susceptibility assay (L. K. Basco, F. Marguet, M. T. Makler and J. Lebbras, Exp. Parasitol. 80, 260-271 (1995); M. T. Makler and D. J. Hinrichs; Am. J. Trop. Med. Hyg. 48, 205-210 (1993)). This assay gave the identical results to the hypoxanthine technique. In addition, for each experiment, microscopic counting of Giemsa stained thin slides was used as a control.
The biological screen involved evaluation of the compounds against the protozoan P. falciparum in in vitro culture. The range of drug concentrations was used independently by two assays. One, radiolabelled hypoxanthine incorporation into the nucleic acid of P. falciparum, and the other, more expedient assay, a 96-well plate susceptibility assay using lactate dehydrogenase. Both assays gave identical results. In addition, microscopic counting of Giemsa stained thin slides was used as a control. Examples of experimental curves are attached as Appendix 2. The biological tests were done at several concentrations. The highest concentration was 200 μM, the compounds were considered active at concentrations less than 40 μM.

[2] = tested on: P. falciparum strain D6 (chloroquin non-resistant); assay: U.S. Army Antimalarial Test Program in vitro screen, strain D6; type: cell-based, Plasmodium falciparum; conditions: 15 dimers, D6 and W2 stated together
Description: (§1) Fifteen L-nucleoside dimers (L-101, L-103, L-103A, L-107, L-110, L-111, L-112, L-114, L-117, L-120, L-122, L-124, L-125, L-133 & L-138) from Lipitek's library were submitted for in vitro screen to the U.S. Army Antimalarial Test Program (for the structures of the compounds, see FIG. 7). The compounds have been tested for their activity against two P. falciparum strains: D6 (chloroquin non-resistant) and W2 (chloroquin resistant).

[3] = tested on: P. falciparum strain W2 (chloroquin resistant); assay: U.S. Army Antimalarial Test Program in vitro screen, strain W2; type: cell-based, Plasmodium falciparum; conditions: 15 dimers, D6 and W2 stated together
Description: as §1

[4] = tested on: P. falciparum infected erythrocytes (trophozoites); type: in vitro ADME, human erythrocytes infected with Plasmodium falciparum
Procedure: (§2) The metabolism of the L-nucleoside conjugates was studied by HPLC analysis. The primary aim was to determine their ability to be catabolized by parasite purine salvage enzymes. Some effect on the purine metabolic pools was also observed.
(§3) For each HPLC determination 200 μL of packed cells of 80-90% trophozoite infected cells were used. These were isolated from in vitro cultures by synchronization of the parasites in in vitro cultures using sterile D-sorbitol (L. Lambros and J. P. Vanderberg, Parasitol. 65, 418-420 (1979)) followed by separation of the trophozoites from non infected erythrocytes by Percoll gradients as described previously (A. M. Gero, H. V. Scott, W. J. O'Sullivan and R. I. Christopherson, Mol. Biochem. Parasitol. 34, 87-89 (1989)). Trophozoites were incubated at 37° C. for 2 hours with each compound to be tested. Compounds were incubated with both whole infected cells as whole and lyzed uninfected normal erythrocytes to determine:
a) entry to the cell (whether they were transported);
Drug incubation was terminated by centrifugation through silicon oil using the method of Upston and Gero (J. M. Upston and A. M. Gero, Biochem. Biophys. Acta. 1236, 249-258 (1995)). This procedure separated intact trophozoites from extracellular non-transported drug solution.
(§4) The metabolism of nucleosides with potential chemotherapeutic activity was assessed by the analysis of cytoplasmic samples by reverse phase ion-pair high performance liquid chromatography (R. S. Toguzov, Y. V. Tikhonov, A. M. Pimenov, V. Prokudin, Journal of Chromatography, I. Biomedical Appl. 434, 447-453 (1988)). Nucleotides, nucleosides and bases were separated by this HPLC method.
It has been established that transport and uptake in parasite invaded cells is different from that of normal blood erythrocytes (A. M. Gero & A. M. Wood, In: Pyrine & Pyrimidine Methabolism in Man VII, Part A. (R. A. Harkness et al., Eds) Plenum Press, NY, 169-172 (1991)). Invasion by the malaria parasite comprises the cell membrane, allowing penetration of unnatural substances of various size and shape, whereas normal cells are very selective in uptake. It was shown that L-nucleosides and their derivatives easily penetrate invaded cells, while they have a very slow rate of uptake into normal cells, if they enter at all. In order to obtain preliminary data on transport, uptake and metabolism, the HPLC method was used to analyze the following 10 Lipitek compounds: L-101, L-103, L-109, L-111, L-117, L-133, L-138, GCl 1007, GCl 1027, GCl 1069.
(§5) These compounds were chosen for the identification of possible metabolites. In this experiment the compounds were incubated with both whole infected cells, and with whole and lysed uninfected cells, followed by the separation of unreacted compound and HPLC analysis.

[5] = tested on: P. falciparum infected erythrocytes (trophozoites); type: in vitro ADME, human erythrocytes infected with Plasmodium falciparum; remark: listed apart in the source
Procedure: as §2, §3
b) the metabolic effect within the cell (was the compound metabolized);
as §4, §5

[6] = Plasmodium falciparum, 24 h, Table 1, 24 h drug exposure, up to 200 μM, read-out: IC50
[7] = Plasmodium falciparum, Table 2, FUdR linkage position 5', read-out: IC50
[8] = Plasmodium falciparum, Table 4, Phosphate "bridge" O=P--O, read-out: IC50
[9] = Plasmodium falciparum, Table 3, α-L configuration of the L-nucleoside, read-out: IC50

Molecule | In vitro activity against P. falciparum, in words [1] | IC50 [1, 6] [µM] | IC50 [1, 7] [µM] | IC50 [1, 8] [µM] | toxicity against P. falciparum, in words [1] | activity ranking in words, strain D6 [2] | activity ranking in words, strain W2 [3] | entry to the infected cell [4] | metabolism by the infected cells [5] | IC50 ([1]; Table 1, 24 h drug exposure, up to 200 μM, read-out: IC50) [µM] | IC50 ([1]; Table 2, FUdR linkage position 5', read-out: IC50) [µM] | IC50 ([1]; Plasmodium falciparum, Erythrocyte, 24 h, Table 6, SATE derivatives of FUdR, read-out: ID50 (the source's name)) [µM] | IC50 [1, 9] [µM] | IC50 ([1]; Plasmodium falciparum, Table 3, β-L configuration of the L-nucleoside, read-out: IC50) [µM]
O=c1[nH]c(=O)n([C@H]2C[C@H](OP(=O)(O)OC[C@H]3O[C@@H](n4cc(F)c(=O)[nH]c4=O)C[C@@H]3O)[C@@H](CO)O2)cc1F [L-101, [β-D]2 -FUdR] | most active | 15 | 15 | 15 | toxic against P. falciparum | most active | most active | entered the infected cells | metabolized by the infected cells | – | – | – | – | –
β-L-dG, β-D-FUdR [L-133] | most active | – | – | – | toxic against P. falciparum | most active | most active | entered the infected cells | metabolized by the infected cells | 14 | 14 | – | – | –
O=c1[nH]c(=O)n([C@H]2C[C@@H](O)[C@H](CO)O2)cc1F [GCI 1027, 2'-deoxy-α-L-5-fluorouridine] | no activity | > 200 | – | – | toxic against P. falciparum | – | – | entered the infected cells | – | – | – | > 200 | – | –
O=c1ccn([C@@H]2C[C@@H](OP(=O)(O)OC[C@H]3O[C@@H](n4cc(F)c(=O)[nH]c4=O)C[C@@H]3O)[C@H](CO)O2)c(=O)[nH]1 [L-117] | – | 35 | – | 35 | toxic against P. falciparum | most active | most active | entered the infected cells | – | – | – | – | – | –
Nc1ccn([C@H]2C[C@@H](OP(=O)(O)OC[C@H]3O[C@@H](n4cc(F)c(=O)[nH]c4=O)C[C@@H]3O)[C@H](CO)O2)c(=O)n1 [L-111, 3'-O-(β-D-5-fluoro-2'-deoxyuridinyl)-α-L-2'-deoxycytidine] | most active; also recorded: no obvious difference in the activity | 38 | 38 | – | toxic against P. falciparum | – | – | entered the infected cells | – | – | – | – | 38 | –
O=c1[nH]c(=O)n([C@@H]2C[C@@H](O)[C@H](COP(=O)(O)O[C@@H]3C[C@@H](n4cc(F)c(=O)[nH]c4=O)O[C@H]3CO)O2)cc1F [L-109, 3'-O-(β-L-5-fluoro-2'-deoxyuridinyl)-β-L-5-fluoro-2'-deoxyuridine] | did not exhibit any activity | > 200 | – | – | not toxic | – | – | could not enter the infected cell | – | – | – | – | – | –
O=c1[nH]c(=O)n([C@@H]2OC[C@H](O)[C@@H]2O)cc1F [GCI 1007, α-L-erythrofuranosyl-5-fluorouracil] | – | > 200 | – | – | toxic against P. falciparum | – | – | entered the infected cells | – | – | – | – | – | –
O=c1[nH]c(=O)n([C@H]2C[C@@H](OP(=O)(O)OC[C@H]3O[C@@H](n4cc(F)c(=O)[nH]c4=O)C[C@@H]3O)[C@H](CO)O2)cc1F [L-103] | – | 20 | 20 | 20 | toxic against P. falciparum | – | – | entered the infected cells | – | – | – | – | 20 | –
O=c1[nH]c(=O)n([C@@H]2C[C@@H](OP(=O)(O)OC[C@H]3O[C@@H](n4cc(F)c(=O)[nH]c4=O)C[C@@H]3O)[C@H](CO)O2)cc1F [L-110, 3'-O-(β-D-5-fluoro-2'-deoxyuridinyl)-β-L-5-fluoro-2'-deoxyuridine] | – | 20 | 20 | – | – | most active | most active | – | – | – | – | – | – | 20

Source: patent US6242428A, “Nucleoside analogs and uses in treating Plasmodium falciparum infection” (Unisearch Limited, priority 1998, dated 2001)
